Measured values published in patent publication US20100216779A1 (GLAXOSMITHKLINE LLC, priority 2007, published 2010).

Test system: various cell lines of different tumor origins
Test: Inhibition of cell proliferation, InCell Analyzer assay
Assay type: cell-based
Method: C. Inhibition of Cell Proliferation
For InCell Analyser assay, various cell lines of different tumor origins were grown to 70-80% confluency in appropriate culture media containing 10% fetal bovine serum at 37° C. in a 5% CO2 incubator. On day-1, cells were seeded at 2 densities in 384-well plates and incubated at 37° C. overnight. Stock compound plates were prepared in advance which contained dimethyl sulfoxide (DMSO) alone and a 9-point half-log decreasing dose range of the compound of Example 22 in DMSO. The compound plates were stored at −80° C. and each plate was only thawed once and used. On day 0, the main assay plates received compound or DMSO via a sonic delivery system (ECHO). The highest final concentration of compound of the dose range in the culture plates was 10 uM. These plates were cultured at 37° C. for 3 days. […] On day 3, the compound treated plates were stained and fixed to measure proliferation, apoptosis, and mitotic index using an InCell1000 analyser. A nuclear stain was used to identify cells in the wells. By counting the number of nuclei, the proliferation index of compound treated groups were calculated as a percentage relative to the DMSO control, which was set to 100%. The IC50 values were calculated using model 205 in ExcelFit.

For `COc1cc(N2CCC(N3CCCCC3)CC2)ccc1Nc1nccc(-c2c(-c3cccc(C(=O)Nc4c(F)cccc4F)c3)nc3ccccn23)n1` [Example 22, 3-[3-(2-{[4-(1,4′-bipiperidin-1′-yl)-2-(methyloxy)phenyl]amino}-4-pyrimidinyl)imidazo[1,2-a]pyridin-2-yl]-N-(2,6-difluorophenyl)benzamide], the IC50 (Homo sapiens, NCI-H292, NCI-H292, Lung) was 1 to 5 µM, the IC50 (Homo sapiens, NCI-H295R, Cervix) was over 5 µM and the IC50 (Homo sapiens, NCI-H358, NCI-H358, Lung) was under 1 µM. The IC50 (Homo sapiens, NCI-H460, NCI-H460, Lung) was 1 to 5 µM, the IC50 (Homo sapiens, NCI-H520, NCI-H520, Lung) was 1 to 5 µM and the IC50 (Homo sapiens, NCI-H522, NCI-H522, Lung) was 1 to 5 µM. For the same molecule, the IC50 (Homo sapiens, NCI-H526, NCI-H526, Lung) was under 1 µM, the IC50 (Homo sapiens, NCI-H596, NCI-H596, Lung) was over 5 µM and the IC50 (Homo sapiens, NCI-H630, NCI-H630, Rectum) was under 1 µM. For the same molecule, the IC50 (Homo sapiens, NCI-H661, NCI-H661, Lung) was 1 to 5 µM, the IC50 (Homo sapiens, NCI-H716, NCI-H716, Colon) was under 1 µM and the IC50 (Homo sapiens, NCI-H727, NCI-H727, Lung) was 1 to 5 µM. The IC50 (Homo sapiens, NCI-H747, NCI-H747, Colon) was 1 to 5 µM, the IC50 (Homo sapiens, NCI-H1395, NCI-H1395, Lung) was over 5 µM and the IC50 (Homo sapiens, NCI-H2087, NCI-H2087, Lung) was over 5 µM. The IC50 (Homo sapiens, NCI-N87, NCI-N87, Stomach) was under 1 µM, the IC50 (Homo sapiens, NCI/ADR-RES, Breast) was 1 to 5 µM and the IC50 (Homo sapiens, OV-90, OV-90, Ovary) was over 5 µM. For the same molecule, the IC50 (Homo sapiens, OVCAR-3, OVCAR-3, Ovary) was over 5 µM, the IC50 (Homo sapiens, OVCAR-4, OVCAR-4, Ovary) was 1 to 5 µM and the IC50 (Homo sapiens, OVCAR-5, OVCAR-5, Ovary) was under 1 µM. For the same molecule, the IC50 (Homo sapiens, OVCAR-8, OVCAR-8, Ovary) was 1 to 5 µM, the IC50 (Homo sapiens, RL95-2, RL95-2, Uterus) was 1 to 5 µM and the IC50 (Homo sapiens, RPMI-2650, RPMI2650, H&N) was 1 to 5 µM. For the same molecule, the IC50 (Homo sapiens, RPMI-6666, RPMI6666, lymphoma - Hodgkin) was 1 to 5 µM, the IC50 (Homo sapiens, RPMI-8226, RPMI8226, Myeloma) was under 1 µM and the IC50 (Homo sapiens, RWPE-1, RWPE-1, Prostate) was under 1 µM. The IC50 (Homo sapiens, RXF 393, RXF393, Kidney) was 1 to 5 µM, the IC50 (Homo sapiens, Raji, lymphoma - Burkitt) was 1 to 5 µM and the IC50 (Homo sapiens, SAOS-2, SaOS-2, Sarcoma) was under 1 µM. The IC50 (Homo sapiens, SCC-4, SCC-4, H&N) was 1 to 5 µM, the IC50 (Homo sapiens, SCC-9, SCC-9, H&N) was over 5 µM and the IC50 (Homo sapiens, SCC-15, SCC-15, H&N) was over 5 µM. The IC50 (Homo sapiens, SCC-25, SCC-25, H&N) was under 1 µM, the IC50 (Homo sapiens, SCaBER, Bladder) was 1 to 5 µM and the IC50 (Homo sapiens, SF-268, SF-268, glioma) was 1 to 5 µM. The IC50 (Homo sapiens, SF-295, SF-295, glioma) was over 5 µM, the IC50 (Homo sapiens, SF-539, SF-539, glioma) was over 5 µM and the IC50 (Homo sapiens, SHP77, SHP-77, Lung) was 1 to 5 µM. The IC50 (Homo sapiens, SJRH30, SJRH30, Sarcoma - rhabdomyosarcoma) was under 1 µM, the IC50 (Homo sapiens, SK-BR-3, SK-BR-3, Breast) was 1 to 5 µM and the IC50 (Homo sapiens, SK-LMS-1, SK-LM-S1, Sarcoma) was 1 to 5 µM. The IC50 (Homo sapiens, SK-MEL3, SK-MEL-3, Skin) was over 5 µM, the IC50 (Homo sapiens, SK-MEL-1, SK-MEL-1, Skin) was over 5 µM and the IC50 (Homo sapiens, SK-MEL-28, SK-MEL-28, Skin) was 1 to 5 µM. The IC50 (Homo sapiens, SK-N-AS, neuroblastoma) was 1 to 5 µM, the IC50 (Homo sapiens, SK-N-DZ, neuroblastoma) was 1 to 5 µM and the IC50 (Homo sapiens, SK-N-FI, neuroblastoma) was under 1 µM. The IC50 (Homo sapiens, SK-NEP-1, SK-NEP-1, Kidney) was over 5 µM, the IC50 (Homo sapiens, SK-OV-3, SK-OV-3, Ovary) was over 5 µM and the IC50 (Homo sapiens, SK-UT-1, SK-UT-1, Sarcoma) was 1 to 5 µM. For the same molecule, the IC50 (Homo sapiens, SN12C, Kidney) was 1 to 5 µM, the IC50 (Homo sapiens, SNB-19, SNB-19, glioma) was over 5 µM and the IC50 (Homo sapiens, SNB-75, SNB-75, glioma) was over 5 µM. For the same molecule, the IC50 (Homo sapiens, SNU1, SNU-1, Stomach) was over 5 µM, the IC50 (Homo sapiens, SNU-5, SNU-5, Stomach) was over 5 µM and the IC50 (Homo sapiens, SNU-16, SNU-16, Stomach) was over 5 µM. For the same molecule, the IC50 (Homo sapiens, SNU-182, SNU-182, Liver) was 1 to 5 µM, the IC50 (Homo sapiens, SNU-387, SNU-387, Liver) was 1 to 5 µM and the IC50 (Homo sapiens, SNU-398, SNU-398, Liver) was 1 to 5 µM. The IC50 (Homo sapiens, SNU-423, SNU-423, Liver) was 1 to 5 µM, the IC50 (Homo sapiens, SNU-449, SNU-449, Liver) was over 5 µM and the IC50 (Homo sapiens, SNU-475, SNU-475, Liver) was 1 to 5 µM. For the same molecule, the IC50 (Homo sapiens, ST486, ST486, lymphoma - Burkitt) was 1 to 5 µM, the IC50 (Homo sapiens, SW48, SW48, Colon) was under 1 µM and the IC50 (Homo sapiens, SW480, SW480, Colon) was 1 to 5 µM. The IC50 (Homo sapiens, SW684, SW684, Sarcoma) was over 5 µM, the IC50 (Homo sapiens, SW756, SW756, Cervix) was 1 to 5 µM and the IC50 (Homo sapiens, SW780, SW780, Bladder) was over 5 µM. The IC50 (Homo sapiens, SW837, SW837, Colon) was over 5 µM, the IC50 (Homo sapiens, SW872, SW872, Sarcoma) was 1 to 5 µM and the IC50 (Homo sapiens, SW948, SW948, Colon) was over 5 µM. The IC50 (Homo sapiens, SW 954, SW954, Vulva) was under 1 µM, the IC50 (Homo sapiens, SW 962, SW962, Vulva) was under 1 µM and the IC50 (Homo sapiens, SW982, SW982, Sarcoma) was over 5 µM. For the same molecule, the IC50 (Homo sapiens, SW1088, SW1088, glioma) was 1 to 5 µM, the IC50 (Homo sapiens, SW 1116, SW1116, Colon) was over 5 µM and the IC50 (Homo sapiens, SW1353, SW1353, Sarcoma) was over 5 µM. It also gave an IC50 (Homo sapiens, SW1417, SW1417, Colon) of under 1 µM, an IC50 (Homo sapiens, SW1463, SW1463, Rectum) of under 1 µM and an IC50 (Homo sapiens, SW1783, SW1783, glioma) of over 5 µM. It also gave an IC50 (Homo sapiens, SW1990, SW1990, Pancreas) of 1 to 5 µM, an IC50 (Homo sapiens, SW-403, SW403, Colon) of under 1 µM and an IC50 (Homo sapiens, SW-620, SW620, Colon) of 1 to 5 µM. For the same molecule, the IC50 (Homo sapiens, SiHa, Cervix) was 1 to 5 µM, the IC50 (Homo sapiens, T47D, T-47D, Breast) was 1 to 5 µM and the IC50 (Homo sapiens, THP-1, THP-1, AML) was 1 to 5 µM. It also gave an IC50 (Homo sapiens, TK-10, TK-10, Kidney) of 1 to 5 µM, an IC50 (Homo sapiens, U2OS, U-2OS, Sarcoma) of 1 to 5 µM and an IC50 (Homo sapiens, U138-MG, U-138MG, glioma) of over 5 µM. It also gave an IC50 (Homo sapiens, U-87 MG, glioma) of over 5 µM, an IC50 (Homo sapiens, U-251, U251, glioma) of 1 to 5 µM and an IC50 (Homo sapiens, UACC-62, UACC-62, Skin) of 1 to 5 µM. For the same molecule, the IC50 (Homo sapiens, UACC-257, UACC-257, Skin) was 1 to 5 µM, the IC50 (Homo sapiens, UACC-812, UACC-812, Breast) was over 5 µM and the IC50 (Homo sapiens, UMUC3, UM-UC-3, Bladder) was over 5 µM. For the same molecule, the IC50 (Homo sapiens, UO-31, UO-31, Kidney) was 1 to 5 µM, the IC50 (Homo sapiens, WM-115, WM115, Skin) was over 5 µM and the IC50 (Homo sapiens, YAPC, Pancreas) was over 5 µM. The IC50 (Homo sapiens, ZR-75-1, ZR-75-1, Breast) was over 5 µM, the IC50 (J82, Bladder) was 1 to 5 µM and the IC50 (JAR, Placenta) was 1 to 5 µM. For the same molecule, the IC50 (KHOS-240S, Sarcoma) was 1 to 5 µM, the IC50 (KLE, Uterus) was 1 to 5 µM and the IC50 (KPL-1, KPL-1, Breast) was 1 to 5 µM. It also gave an IC50 (M14, Skin) of 1 to 5 µM, an IC50 (MC-CAR, #N/A) of 1 to 5 µM and an IC50 (ML-2, AML) of over 5 µM. For the same molecule, the IC50 (MT-3, Breast) was under 1 µM, the IC50 (MX-1, Breast) was 1 to 5 µM and the IC50 (NALM-1, CML blast phase) was 1 to 5 µM. For the same molecule, the IC50 (NCI-H322, NCI-H322, Lung) was under 1 µM, the IC50 (NCI-H660, NCI-H660, Prostate) was over 5 µM and the IC50 (RD, Sarcoma - rhabdomyosarcoma) was over 5 µM. It also gave an IC50 (RD-ES, Sarcoma) of under 1 µM, an IC50 (RL, lymphoma - non-Hodgkin) of 1 to 5 µM and an IC50 (SCC12, SCC-12, H&N) of over 5 µM. It also gave an IC50 (SCC-13, SCC-13, H&N) of over 5 µM, an IC50 (SCLC-3, Lung) of 1 to 5 µM and an IC50 (SH-4, Skin) of 1 to 5 µM. It also gave an IC50 (SKO-007, SKO-007, Myeloma) of 1 to 5 µM, an IC50 (SR, lymphoma - large cell immunoblastic) of 1 to 5 µM and an IC50 (SW579, SW579, Thyroid) of 1 to 5 µM. It also gave an IC50 (T24, Bladder) of over 5 µM, an IC50 (T-cell, MJ, lymphoma - cutaneous T cell) of 1 to 5 µM and an IC50 (TE 381.T, TE381.T, Sarcoma - rhabdomyosarcoma) of under 1 µM. It also gave an IC50 (TO 175.T, TO175.T, Skin) of 1 to 5 µM, an IC50 (U266B1, Myeloma) of 1 to 5 µM and an IC50 (Y79, Eye) of over 5 µM.
